US11247971B2, “Small molecule inhibitors of lactate dehydrogenase and methods of use thereof” (THE UNITED STATES OF AMERICA, AS REPRESENTED BY THE …, priority 2014, dated 2022)

Assays:
[1] = pharmacokinetics after oral administration in mice; format: in vivo; conditions: male CD1 mice, oral 10 mg/kg
Human LDHA = Human LDHA (Homo sapiens (Human), UniProt P00338); assay: human LDHA primary biochemical assay; conditions: read-out: Inhibitory activity IC50, assay of Example 1, activity level classes
Source text: This example describes a human LDHA primary biochemical assay employed in the characterization of a compound of formula (I) in an embodiment of the invention.
Test compounds were placed in a Greiner Bio-One (Monroe, N.C.) 1536-well black solid bottom assay plate. 200 millimolar (mM) Tris HCl, pH 7.4, 100 micromolar (μM) EDTA and 0.01% TWEEN-20™, final concentration, was used as the assay buffer. The LDHA reagent was 2 nanomolar (nM) Human LDHA (Meridian Life Science, Inc., Memphis, Tenn.), final concentration, in assay buffer. The substrate reagent was 0.06 mM NADH and 0.2 mM sodium pyruvate, final concentration, in assay buffer. […] The inhibition of LDHA activity was measured by fluorescence emission.

MiaPaCa2 cells = assay: cell-based HT Lactate assay, colorimetric/fluorometric detection (inhibition of lactate production); conditions: class symbols
Method: Cell-based HT Lactate assay is a miniaturized Biovision Lactate Colorimetric/Fluorometric Assay Kit (Cat #K607-100). The assay is roughly a 3.5 hour assay run in a 1536 plate format. Cell number optimization should be run for each cell line to achieve an optimal number in which lactate production equals roughly 90% of the standard curve range. Cell number per well optimization has been performed with the following cell lines: MiaPaCa2—500 cells/well, SNU398—500 cells/well, and P493—500 cells/well.
The lactate activity in Table 8 is represented by 0 to 3 pluses as follows: […]; ++1-10 μM; +10-57 μM; and −>57 μM.

Compound	F (fraction of the dose that enters systemic circulation) [1] [%]	AUClast ([1]; plasma, LC/MS/MS) [ng·h/mL]	Cmax ([1]; plasma, LC/MS/MS) [ng/mL]	IC50 (Human LDHA) [nM]	IC50 (MiaPaCa2 cells) [nM]
CCOC(=O)c1csc(-n2nc(-c3cccc(-c4ccccc4)c3)c(Cc3ccc(S(N)(=O)=O)cc3)c2C(F)(F)F)n1 [Compound 141, ethyl 2-(3-([1,1′-bipheny]-3-yl)-4-(4-sulfamoylbenzyl)-5-(trifluoromethyl)-1H-pyrazol-1-yl)thiazole-4-carboxylate]	69	2409	851	–	–
NS(=O)(=O)c1ccc(Cc2c(-c3cccc(-c4ccccc4)c3)nn(-c3nc(C(=O)O)cs3)c2C(F)(F)F)cc1 [Compound 42, 2-(3-([1,1′-biphenyl]-3-yl)-4-(4-sulfamoylbenzyl)-5-(trifluoromethyl)-1H-pyrazol-1-yl)thiazole-4-carboxylic acid]	34	–	–	–	–
2-(3-(3′-amino-[1,1′-biphenyl]-3-yl)-4-(4-sulfamoylbenzyl)-1H-pyrazol-1-yl)thiazole-4-carboxylic acid [Compound 523]	–	–	–	100 to 1000	1000 to 10000
NS(=O)(=O)c1ccc(Cc2c(-c3ccc(F)c(OC4CC4)c3)nn(-c3nc(C(=O)O)cs3)c2CC2CC2)cc1F [Compound 471, 2-(3-(3-cyclopropoxy-4-fluorophenyl)-5-(cyclopropylmethyl)-4-(3-fluoro-4-sulfamoylbenzyl)-1H-pyrazol-1-yl)thiazole-4-carboxylic acid]	–	–	–	< 100	–
